Entries after “also recorded” stand apart in the source; their conditions may differ. Counter-ions that a name gives are not always drawn. Like-named read-outs stand apart in the source and are kept apart here.
Tests used:
Proteus morganii 356 [1] = assay: mouse protection test, clinical isolate resistant to cephalosporins; type: in vivo, mice; settings: Subcutaneous Route × 2 Doses (average of Two Trials)
Description: (§1) The method employed in this characterization is as follows: Female white Swiss mice, average weight 20-23 grams, were infected intraperitoneally with 3-20 times the number of organisms calculated to be lethal for 50% of the infected control animals (3-20 LD50 doses). At the time of infection and again six hours later, therapy was given by the designated route. Controls of the virulence of the culture and the toxicity of the antibiotic for uninfected mice were included in the tests. Seven days after infection the test was considered complete and the amount of the antibiotic (I) that would be required to protect 50% of the infected and treated animals was calculated by the method of Knudsen and Curtis; J. Amer. Stat. Assoc. Vol. 42: page 282 (1947).
Administration was by subcutaneous injection. At the completion of the test period, usually seven days after administration, the amount of product required to protect 50% of the mice (ED50) from this otherwise fatal injection was calculated:
In addition to the aforementioned in vivo trails of the product, a clinical isolate of Proteus morganii 356 which is resistant to cephalosporins and capable of degrading cephalosporin C, was employed in a mouse protection test performed in the same manner as reported above.

[2] = tested on: Aerobacter cloacae (MB-2646); assay: bacterial inactivation, cell-free extract; type: biochemical
Procedure: The ability of Antibiotic 810A and cephalosporin C to withstand the degradative effect of the culture Aerobacter cloacae (MB-2646) was also determined. This culture is gram-negative and resistant to cephalosporin C. […] The source of the inactivating substance is a 1:160 dilution of the filtrate of an 18 hour 37° C. shake culture of Aerobacter cloacae MB-2646 in nutrient broth containing 0.2% yeast extract. Table XIV, infra, indicates the percent inactivation of Antibiotic 810A, cephalothin, cephaloridine and cephalosporin C on Vibrio percolans (MB-1272) via this method:
Using the same assay procedure as described above, Table XV, infra, indicates the relative resistance of Antibiotic 810A to enzymatic inactivation by Aerobacter cloacae. The starting concentration is 250 μg./ml. Results are expressed in μg./ml.

[3] = tested on: gram-negative and gram-positive infections; assay: in vivo protection against infection (summary statements); parameters: species or system mice; settings: for protection: 4000 mg. × dose, subcutaneous, infection not marked; for protection against infections, oral: given orally; for in vivo protection / activity: mouse
Description: as §1
The method employed in these studies is the same as described above with regard to the in vivo characterization of 810A.

[4] = tested on: Salmonella gallinarum MB-1287; assay: disc-plate bioassay of derivatives; type: cell-based; settings: 100γ/ml (Example 77)
Description: (§2) Bioassay: The disc zone sizes in the following table are expressed in mm. for equal concentrations of antibiotic.

Vibrio percolans MB-1272 = assay: disc-plate bioassay; settings: for zone of inhibition at 100 µg/mL / zone of inhibition at 5 µg/mL: Comamonas terrigena
[5] = tested on: Pseudomonas stutzeri MB-1231; assay: disc-plate bioassay of derivatives; type: cell-based; settings: Stutzerimonas stutzeri, MB1231, equal concentrations, 100γ/ml (Example 71); read-out: disc zone size
Description: (§3) Bioassay: The disc zone sizes in the following table are expressed in mm. for 100 γ/ml of antibiotic.
as §2

Escherichia coli W-MB-60 = assay: disc-plate bioassay of derivatives; type: cell-based; settings: 100 γ/ml (Example 78)
Description: as §3, §2

penicillinase = settings: cited from earlier work
Escherichia coli 236 = assay: bacterial inactivation; settings: four hours incubation; on B. subtilis (MB-964); 240 min
Procedure: (§4) These cultures are: Escherichia coli 236, Proteus morganii 251, Proteus morganii 356 and Proteus mirabilis 241. […] In conducting the assay individual mixtures of the organisms and one of the antibiotic were sampled after four hours incubation and assayed for residual antibiotic activity. The procedure is the same assay method as described above against Alcaligenes faecalis MB-9 and A. viscosus MB-12.

Proteus mirabilis 241 = assay: bacterial inactivation
Procedure: as §4

Proteus morganii 356 [6] = assay: bacterial inactivation
Procedure: as §4

Proteus morganii 251 = assay: bacterial inactivation
Procedure: as §4

[7] = tested on: Alcaligenes faecalis (MB-9); assay: bacterial inactivation, washed bacterial cells
[8] = tested on: gram-negative and gram-positive bacteria; settings: cited from earlier work
cephalosporinases = assay: resistance to cephalosporinases / penicillinase; type: biochemical
certain microorganisms = assay: resistance to bacterial inactivation / enzymatic degradation (summary statements); type: biochemical
Description: Bacterial Inactivation With 810A: An in vitro study was designed to determine the resistance of Antibiotic 810A, to bacterial inactivation as compared with cephalosporin C, cephaloridine and cephalothin.

[9] = tested on: gram-negative and gram-positive bacteria; assay: in vitro antibacterial activity (summary statements); type: cell-based
[10] = toxicity for uninfected mice; settings: mouse, in vivo
Description: as §1

[11] = urinary excretion and blood levels; type: in vivo, mice; settings: mouse
[12] = isoelectric point and pH stability; type: physicochemical; settings: for stability, low pH: pH 1.5
[13] = 2 Hour Incubation, assayed on V. percolans (MB-1272) plates
[14] = four hours incubation, on B. subtilis (MB-964), 240 min

CC(=O)OCC1=C(C(=O)O)N2C(=O)[C@@H](NC(=O)Cc3cccs3)[C@H]2SC1 [Cephalothin]
ED50 (Proteus morganii 356 [1]): 20,000 μg
Percent Inactivation After Incubation With Cell-Free Extract [2, 13]: 66%
protection [3]: failed to protect at 4000 mg. × dose

O=C(Cc1cccs1)N[C@@H]1C(=O)N2C(C(=O)[O-])=C(C[n+]3ccccc3)CS[C@H]12 [Cephaloridine]
ED50 (Proteus morganii 356 [1]): 9,270 μg
Percent Inactivation After Incubation With Cell-Free Extract ([2]; aerobacter cloacae cell-free extract, 2 h): 96%
protection [3]: failed to protect at 4000 mg. × dose

CO[C@@]1(NC(=O)CCC[C@@H](N)C(=O)O)C(=O)N2C(C(=O)O)=C(COC(N)=O)CS[C@@H]21 [Disodium Salt of 842A]
disc zone size [4]: 27 mm
zone of inhibition at 100 µg/mL (Vibrio percolans MB-1272; MB1272, read-out: disc zone size, 100γ/ml (Example 77)): > 35 mm
zone of inhibition at 100 µg/mL (Vibrio percolans MB-1272; MB1272, read-out: disc zone size, 100 γ/ml (Example 78)): 23 mm
zone of inhibition at 5 µg/mL (Vibrio percolans MB-1272; MB1272, read-out: disc zone size, Example 70, (5γ/ml) printed at end of line, head 100γ/ml): 18 mm
zone of inhibition at 5 µg/mL (Vibrio percolans MB-1272; MB1272, read-out: disc zone size, equal concentrations, 5γ/ml (Example 71)): 18 mm
zone of inhibition at 100 µg/mL [5]: 21 mm
disc zone size (Escherichia coli W-MB-60): 18 mm

CC1(C)S[C@@H]2[C@H](NC(=O)Cc3ccccc3)C(=O)N2[C@H]1C(=O)O [Penicillin G]
resistance to / degradation by penicillinase (penicillinase): in the presence of penicillinase it is degraded to a form which is ineffective against most pathogens

CC(=O)OCC1=C(C(=O)O)N2C(=O)[C@@H](NC(=O)CCC[C@@H](N)C(=O)O)[C@H]2SC1 [Cephalosporin C]
percent inactivation (Escherichia coli 236): > 99%
percent inactivation (Proteus mirabilis 241; [14]): 72%
percent inactivation (Proteus morganii 356 [6]; [14]): > 99%
percent inactivation (Proteus morganii 251; [14]): > 99%
Percent Inactivation After Incubation With Washed Bacterial Cells ([7]; 3 Hour Incubation, assayed on V. percolans (MB-1272) plates): > 99%
Percent Inactivation After Incubation With Washed Bacterial Cells ([7]; 3 Hours Incubation, assayed on B. subtilis (MB-964) plates): > 99%
resistance to / degradation by penicillinase (penicillinase): possesses an inherent resistance to penicillinase
antibacterial activity (background, words) [8]: only moderately active
Percent Inactivation After Incubation With Cell-Free Extract [2, 13]: 96%

CO[C@@]1(NC(=O)CCC[C@@H](N)C(=O)O)C(=O)N2C(C(=O)O)=C(C)CS[C@@H]21 [7β-(D-5-amino-5-carboxyvaleramido)-3-methyl-7-methoxy-3-cephem-4-carboxylic acid]
Bioactivity (Vibrio percolans MB-1272; 50 ug/ml): Inactive at 50 ug/ml

COC(=Cc1ccc(OS(=O)(=O)O)cc1)C(=O)OCC1=C(C(=O)O)N2C(=O)[C@](NC(=O)CCC[C@@H](N)C(=O)O)(OC)[C@H]2SC1 [7β-(D-5-amino-5-carboxyvaleramido)-3-(α-methoxy-p-sulfooxycinnamoyloxymethyl)-7-methoxy-3-cephem-4-carboxylic acid]
resistance to cephalosporinases (cephalosporinases): greater resistance to cephalosporinases than cephalothin
protection against infections, oral [3]: protects against infections due to Proteus vulgaris
in vivo protection / activity [3]: when administered subcutaneously, it is effective against a variety of gram-negative and gram-positive infections
resistance to inactivation / enzymatic degradation (certain microorganisms): more resistant to enzymatic degradation than cephalosporin C
bactericidal action / development of resistance [9]: bactericidal
toxicity [10]: low order of toxicity in mice

CO[C@@]1(NC(=O)CCC[C@@H](N)C(=O)O)C(=O)N2C(C(=O)O)=C(COC(N)=O)CS[C@@H]21 [Example 842A]
percent inactivation (Escherichia coli 236): 38%
percent inactivation (Proteus mirabilis 241; bacterial cells, 4 h): 5%
percent inactivation (Proteus morganii 356 [6]; bacterial cells, 4 h): 69%
percent inactivation (Proteus morganii 251; bacterial cells, 4 h): 80%
blood levels / excretion ([11]; in vivo): produces rapid blood levels; also recorded: rapidly excreted in the urine
dose excreted at 6 h ([11]; urine, within six hours after administration, read-out: eliminated in the urine): ~100%
Percent Inactivation After Incubation With Washed Bacterial Cells ([7]; 4 Hour Incubation, assayed on B. subtilis (MB-964) plates): 0%
protection against infections, oral [3]: protects against infections due to Paracolobactrum arizoniae 3270, Proteus vulgaris 1810, and Salmonella schottmuelleri 3010
in vivo protection / activity ([3]; listed as Antibiotic 842A): protects against infection with three species of Proteus, two of Salmonella, one strain of Escherichia coli, two of Klebsiella and also against Paracolobactrum arizoniae, Aerobacter aerogenes, Pasteurella multocida and Diplococcus pneumoniae E400; also recorded: exhibits a significant in vivo gram-negative effect with a potency which, in general, is greater than cephalothin
resistance to inactivation / enzymatic degradation (certain microorganisms): more resistant to enzymatic degradation than cephalosporin C
resistance to inactivation / enzymatic degradation (certain microorganisms; listed as Antibiotic 842A): more stable than the latter against certain microorganisms; also recorded: more resistant than cephalosporin C to inactivation by A. faecalis, A. viscosus, Escherichia coli 236, Proteus morganii 251, Proteus morganii 236 and Proteus mirabilis 241
stability, high pH [12]: unstable above pH 7
stability, high pH ([12]; listed as Antibiotic 842A): unstable above pH 9.0
stability, low pH [12]: stable at pH 1.5
stability, low pH ([12]; listed as Antibiotic 842A): relatively stable at pH 1.5
antibacterial activity [9]: exhibits activity against Salmonella schottmuelleri 3010, S. gallinarum and S. typhosa
bactericidal action / development of resistance [9]: resistance to it develops slowly and it is bactericidal
antibacterial activity ([9]; listed as Antibiotic 842A): inhibits the growth of the following gram-negative bacteria: Escherichia coli, Proteus vulgaris, Alcaligenes faecalis, Brucella bronchiseptica, Salmonella gallinarum, Vibrio percolans and Xanthomonas vesicatoria; also recorded: inhibits the growth of the following gram-positive bacteria: Staphylococcus aureus, Sarcina lutea and Bacillus subtilis; also recorded: enhanced activity against gram-negative microorganisms

Reference: patent US4302578A, “Cephalosporin antibiotics” (priority 1971, dated 1981)
